Source: PMC6163455 (Biomolecules, 2018)

How the values were obtained:
CHO-K1 cells [1] = test: live-cell confocal microscopy of β-lactamase internalization; assay type: cell-based, Chinese hamster; conditions: 4 µM conjugate with SpyC_BLA or unconjugated SpyC_BLA, 2 h, CCF2-AM 2 µM 1 h, Figure 2a–f
Experimental: (§1) Figure 2 Live-cell confocal microscopy visualizes CPP-mediated β-lactamase internalization. The CPP-mediated uptake of CPP_SpyT/SpyC_BLA conjugates (4 µM) was visualized in CHO-K1 cells (a–f) and T47D cells (g–n). SpyC_BLA was conjugated to CPP_SpyT peptides. […] The degree of uptake is CPP-dependent and visualized by blue fluorescing cells. Bar scale is 50 µm (a–j) or 14.6 µm (k–n).
(§2) Cells were seeded (CHO-K1, 37,500 cells/mL; T47D 37,500 cells/mL) onto 4-well ibiTreat chamber slides (Thermo Fisher Scientific) and incubated for 48 h at 37 °C, 5% CO2. The medium was removed and replaced with medium containing SpyC_BLA/CPP_SpyT conjugated or unconjugated SpyC_BLA proteins and cells were incubated for 2 h at 37 °C, 5% CO2. After incubation, the cells were washed to remove any SpyC_BLA protein that had not internalized, loaded with substrate CCF2-AM (2 µM final concentration in media containing 1% FCS), and incubated for 1 h at room temperature. Live cells were visualized through confocal microscopy. Images were collected using a Nikon C2 Confocal Microscope through a 40× differential interference contrast (DIC) objective after excitation by a 408 nm laser. Bar scales in images represent 50 µm or 14.6 µm (zoom magnification 3.4×).

T47D cells [2] = test: as above; assay type: cell-based, human; conditions: 4 µM conjugate with SpyC_BLA or unconjugated SpyC_BLA, 2 h, CCF2-AM 1 h, Figure 2g–n
Experimental: as §1, §2

CHO-K1 cells [3] = test: β-lactamase internalization assay (CCF2-AM, flow cytometry); assay type: cell-based, Chinese hamster
Experimental: The β-lactamase internalization assay is based on the simple principle that CPP-dependent intracellular delivery of recombinant β-lactamase protein can be detected by cleavage of the CCF2 substrate in the cytosol (Figure 1a). In brief, CPP sequences and the β-lactamase cargo protein can be brought together by conjugation or can be recombinantly expressed as a CPP_β-lactamase (CPP_BLA) fusion (Figure 1a, step i). The CPP_BLA protein fusions or conjugates are incubated on cells, which are then washed to remove excess protein that has not internalized (Figure 1a, step ii). The cells are incubated further (i.e., loaded) with the CCF2-AM cell-permeable dye for 1 h (Figure 1a, step iii). […] This reaction is measured as a shift in fluorescent signal from green to blue. […]
(§3) To validate the assay, we first used a conjugation approach based on the SpyTag (SpyT) peptide/SpyCatcher (SpyC) protein ligation technology. […] Protein conjugates were incubated on CHO-K1 or T47D cells, measuring the fluorescence shift as percentage of blue fluorescent CHO-K1 or T47D cells after 1 h (Figure 1b,c, respectively). […]
The two phylomer CPPs with the strongest β-lactamase internalization signal and the canonical CPP TAT (positive control) were expressed as direct fusions with β-lactamase (CPP_BLA proteins; sequences in Table A2). […]

T47D cells [4] = test: as above; assay type: cell-based, human; conditions: CPP_SpyT/SpyC_BLA conjugates or unconjugated SpyC_BLA, 1 h at 37 °C, CCF2-AM 1 µM, Figure 1c, No CPP control n = 3
Experimental: The β-lactamase internalization assay is based on the simple principle that CPP-dependent intracellular delivery of recombinant β-lactamase protein can be detected by cleavage of the CCF2 substrate in the cytosol (Figure 1a). In brief, CPP sequences and the β-lactamase cargo protein can be brought together by conjugation or can be recombinantly expressed as a CPP_β-lactamase (CPP_BLA) fusion (Figure 1a, step i). The CPP_BLA protein fusions or conjugates are incubated on cells, which are then washed to remove excess protein that has not internalized (Figure 1a, step ii). The cells are incubated further (i.e., loaded) with the CCF2-AM cell-permeable dye for 1 h (Figure 1a, step iii). Once inside the cell, CCF2-AM is converted by endogenous cytoplasmic esterases to CCF2, which is retained in the cytosol. In cells where β-lactamase has internalized through CPP activity, CCF2 is cleaved by β-lactamase (Figure 1a, step iv). This reaction is measured as a shift in fluorescent signal from green to blue. […]
as §3

CHO-K1 cells [5] = test: cell fractionation and anti-β-lactamase immunoblotting; assay type: cell-based, Chinese hamster; conditions: 8 µM, 1.5 h at 37 °C, digitonin cytosol extraction, 4 µg aliquots, anti-β-lactamase antibody, Figure S1
Experimental: Supplementary Information
Supplementary Figures: β-Lactamase Tools for Establishing Cell Internalization and Cytosolic
Delivery of Cell Penetrating Peptides
Figure S1. Verification of cell penetrating peptides (CPP)-mediated β-lactamase internalization by immunoblotting. MW: molecular weight.
Aliquots (4 µg) of cytosolic and membrane soluble CHO-K1 cell fractions from β-lactamase assays were separated by sodium dodecyl sulfate–polyacrylamide gel electrophoresis (SDS-PAGE) through a 4-12% (w/v) polyacrylamide Bis-Tris gel, transferred to polyvinylidene difluoride (PVDF) membrane, and immunoblotted. β-lactamase conjugated (e.g., 1746_SpyT/SpyC_BLA) or fused (e.g., 1746_BLA recombinant) to 1746c27 and 1746 Phylomer cell penetrating peptides (CPPs) was detected in the cytosolic fraction to varying extents, while TAT-conjugated β-lactamase was predominantly detected in the membrane fraction of cell lysates. […]
delivered into the cytosol by the 1746 CPP. Internalization of unconjugated SpyC_BLA protein was not detected, either on its own (SpyC_BLA (no CPP)) or in the presence of 1746c27 peptide (1746c27, SpyC_BLA), illustrating there is no bystander uptake effect. […]
Aliquots of extracted fractions (4 µg) were separated through a 4–12% Bis-Tris gel (Invitrogen, Carlsbad, CA, USA). Protein expression in the fractions was detected using monoclonal anti-β- […]

GRKKRRQRRRGASAHIVMVDAYKPTKG [TAT_SpyT, reference compound]
uptake of SpyC_BLA visualized by blue fluorescing cells (CHO-K1 cells [1]): enabled CPP-dependent uptake of SpyC_BLA | uptake of SpyC_BLA visualized by blue fluorescing cells (T47D cells [2]): enabled CPP-dependent uptake of SpyC_BLA

PLKPKKPKTQEKKKKQPPKPKKPKTQEKKKKQPPKPKRGASAHIVMVDAYKPTKG [1746_SpyT, phylomer CPP 1746 synthesized as SpyTag fusion]
uptake of SpyC_BLA visualized by blue fluorescing cells (CHO-K1 cells [1]): enabled CPP-dependent uptake of SpyC_BLA | uptake of SpyC_BLA visualized by blue fluorescing cells (T47D cells [2]): enabled CPP-dependent uptake of SpyC_BLA

SpyC_BLA: recombinantly expressed SpyCatcher_β-lactamase protein; unconjugated it is the 'No CPP' negative control
uptake of SpyC_BLA visualized by blue fluorescing cells (CHO-K1 cells [1]): minimal evidence of internalization | internalization of CPP-conjugated SpyC_BLA (percentage of blue viable cells) (CHO-K1 cells [3]; CPP_SpyT/SpyC_BLA conjugates or unconjugated SpyC_BLA, 0.5–4 µM, 1 h at 37 °C, CCF2-AM 2 µM, Figure 1b, No CPP control n = 7): does not internalize | internalization of recombinantly expressed CPP_β-lactamase fusion protein (percentage of blue viable cells) (CHO-K1 cells [3]; recombinant CPP_BLA fusion proteins, SpyC_BLA as negative control, Figure 1d): does not internalize | internalization of CPP-conjugated SpyC_BLA (percentage of blue viable cells) (T47D cells [4]): does not internalize | β-lactamase detected in cytosolic and membrane cell fractions (immunoblot) (CHO-K1 cells [5]): not detected | uptake of SpyC_BLA visualized by blue fluorescing cells (T47D cells [2]): minimal evidence of internalization

KKKKQPPKPKKPKTQEKKKKQPPKPKRGASAHIVMVDAYKPTKG [1746c27_SpyT, phylomer CPP 1746c27 synthesized as SpyTag fusion]
uptake of SpyC_BLA visualized by blue fluorescing cells (CHO-K1 cells [1]): enabled CPP-dependent uptake of SpyC_BLA | uptake of SpyC_BLA visualized by blue fluorescing cells (T47D cells [2]): enabled CPP-dependent uptake of SpyC_BLA

RKQKSLQTKLAENPPVPRKKRQSRPRWKQWLQKGASAHIVMVDAYKPTKG [0084_SpyT, phylomer CPP 0084 synthesized as SpyTag fusion]
uptake of SpyC_BLA visualized by blue fluorescing cells (CHO-K1 cells [1]): enabled CPP-dependent uptake of SpyC_BLA

PLTQRTLQRGKKPKQRQNWKKARTSSAKTAPKTVVSRTTSQRKGASAHIVMVDAYKPTKG [0169_SpyT, phylomer CPP 0169 synthesized as SpyTag fusion]
uptake of SpyC_BLA visualized by blue fluorescing cells (CHO-K1 cells [1]): enabled CPP-dependent uptake of SpyC_BLA
